Like-named read-outs stand apart in the source and are kept apart here.
Assays:
[1] = test system: CYP enzyme; conditions: in vitro studies; cited from earlier work
[2] = target: CYP3A4 (Homo sapiens, UniProt P08684); conditions: in vitro; cited from earlier work
[3] = target: CYP2C9 (Homo sapiens, UniProt P11712); conditions: in vitro; cited from earlier work
[4] = for AUC(0-inf) / AUC(0-t) / half-life / Tmax: male, human, in vivo; for AUC(0-inf): AUCinf; for AUC(0-inf) / AUC(0-t): geometric mean; for AUC(0-t): AUClast; for half-life: t 1/2, geometric mean
[5] = test system: CYP1A2; conditions: cited from earlier work
[6] = healthy male subjects, plasma, after 2 weeks of fermented red ginseng
[7] = healthy male subjects, plasma, before fermented red ginseng
[8] = After FRG, healthy male subjects, plasma, after 2 weeks of fermented red ginseng
[9] = Before FRG, healthy male subjects, plasma, before fermented red ginseng
[10] = t max (median), Before FRG, healthy male subjects, plasma, before fermented red ginseng
[11] = t max (median), After FRG, healthy male subjects, plasma, after 2 weeks of fermented red ginseng

Chain of CYP3A4 (P08684 whole entry): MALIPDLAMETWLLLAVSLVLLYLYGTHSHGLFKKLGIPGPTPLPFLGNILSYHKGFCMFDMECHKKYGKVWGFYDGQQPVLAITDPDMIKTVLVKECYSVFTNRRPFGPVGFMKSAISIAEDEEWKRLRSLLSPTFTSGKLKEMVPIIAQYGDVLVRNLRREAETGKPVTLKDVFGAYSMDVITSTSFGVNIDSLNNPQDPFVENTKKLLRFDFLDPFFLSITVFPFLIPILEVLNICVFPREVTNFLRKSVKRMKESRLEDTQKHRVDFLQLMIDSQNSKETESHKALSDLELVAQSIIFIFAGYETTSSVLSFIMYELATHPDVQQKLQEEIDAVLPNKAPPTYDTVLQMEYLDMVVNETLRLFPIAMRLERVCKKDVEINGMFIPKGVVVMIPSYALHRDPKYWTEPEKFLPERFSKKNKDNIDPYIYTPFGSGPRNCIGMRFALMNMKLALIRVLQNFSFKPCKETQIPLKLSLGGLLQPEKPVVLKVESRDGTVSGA
Chain of CYP2C9 (P11712 whole entry): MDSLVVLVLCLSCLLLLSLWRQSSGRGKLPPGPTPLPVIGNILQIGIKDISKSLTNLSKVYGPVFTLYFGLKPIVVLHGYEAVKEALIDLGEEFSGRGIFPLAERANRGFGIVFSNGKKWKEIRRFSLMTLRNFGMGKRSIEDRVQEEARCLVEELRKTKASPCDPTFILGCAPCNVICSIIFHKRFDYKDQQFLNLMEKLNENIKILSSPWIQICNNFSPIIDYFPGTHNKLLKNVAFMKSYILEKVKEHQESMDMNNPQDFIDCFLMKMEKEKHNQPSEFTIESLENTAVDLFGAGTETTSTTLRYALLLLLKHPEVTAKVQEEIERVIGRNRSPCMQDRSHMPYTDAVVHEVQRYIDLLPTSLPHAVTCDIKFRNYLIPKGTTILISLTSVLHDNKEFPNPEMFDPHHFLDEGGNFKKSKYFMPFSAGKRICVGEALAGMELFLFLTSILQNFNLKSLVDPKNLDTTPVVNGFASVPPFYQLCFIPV

Compound | AUCinf, geometric mean ratio, After FRG: Before FRG (90% CI) ([4]; healthy male subjects, plasma) | AUClast, geometric mean ratio, After FRG: Before FRG (90% CI) ([4]; healthy male subjects, plasma) | C max, geometric mean ratio, After FRG: Before FRG (90% CI) ([4]; healthy male subjects, plasma) | AUC(0-inf) [4, 8] [ng·h/mL] | AUC(0-inf) [4, 9] [ng·h/mL] | AUC(0-t) [4, 8] [ng·h/mL] | AUC(0-t) [4, 9] [ng·h/mL] | half-life [4, 8] [h] | half-life [4, 9] [h] | also measured
CC(C)=CCC[C@](C)(O[C@@H]1O[C@H](CO)[C@@H](O)[C@H](O)[C@H]1O)[C@H]1CC[C@]2(C)[C@@H]1[C@H](O)C[C@@H]1[C@@]3(C)CC[C@H](O)C(C)(C)[C@@H]3[C@@H](O[C@@H]3O[C@H](CO)[C@@H](O)[C@H](O)[C@H]3O)C[C@]12C [Rg1, ginsenoside Rg1] | – | – | – | – | – | – | – | – | – | effect on CYP enzyme activity [1]: do not affect
CC(C)=CCC[C@](C)(O[C@@H]1O[C@H](CO[C@@H]2OC[C@H](O)[C@H](O)[C@H]2O)[C@@H](O)[C@H](O)[C@H]1O)[C@H]1CC[C@]2(C)[C@@H]1[C@H](O)C[C@@H]1[C@@]3(C)CC[C@H](O[C@@H]4O[C@H](CO)[C@@H](O)[C@H](O)[C@H]4O[C@@H]4O[C@H](CO)[C@@H](O)[C@H](O)[C@H]4O)C(C)(C)[C@@H]3CC[C@]12C [Rb2, ginsenoside Rb2] | – | – | – | – | – | – | – | – | – | effect on CYP enzyme activity [1]: do not affect
CC(C)=CCC[C@](C)(O[C@@H]1O[C@H](CO)[C@@H](O)[C@H](O)[C@H]1O)[C@H]1CC[C@]2(C)[C@@H]1[C@H](O)C[C@@H]1[C@@]3(C)CC[C@H](O)C(C)(C)[C@@H]3CC[C@]12C [compound K, 20‐O‐(β‐D‐glucopyranosyl)‐20(S)‐protopanaxadiol] | – | – | – | – | – | – | – | – | – | inhibition of CYP3A4 activity [2]: moderate inhibition; inhibition of CYP2C9 activity [3]: moderate inhibition
COc1ccc2nc([S+]([O-])Cc3ncc(CO)c(OC)c3C)[nH]c2c1 (stereo not shown) [5‐hydroxyomeprazole] | 1.050 (0.961–1.147) | 0.979 (0.918–1.045) | 0.945 (0.859–1.039) | – | – | – | – | – | – | AUCinf, geometric mean, After FRG [4, 6]: 283.859 ng·h/mL; AUClast, geometric mean, After FRG [4, 6]: 239.033 ng·h/mL; t 1/2, geometric mean, After FRG [4, 6]: 2.716 h; t max (median), After FRG [4, 6]: 3.000 h; AUCinf, geometric mean, Before FRG [4, 7]: 270.368 ng·h/mL; AUClast, geometric mean, Before FRG [4, 7]: 244.051 ng·h/mL; t 1/2, geometric mean, Before FRG [4, 7]: 1.971 h; t max (median), Before FRG [4, 7]: 3.000 h
CC(C)=CCC[C@](C)(O[C@@H]1O[C@H](CO[C@@H]2O[C@@H](CO)[C@H](O)[C@H]2O)[C@@H](O)[C@H](O)[C@H]1O)[C@H]1CC[C@]2(C)[C@@H]1[C@H](O)C[C@@H]1[C@@]3(C)CC[C@H](O[C@@H]4O[C@H](CO)[C@@H](O)[C@H](O)[C@H]4O[C@@H]4O[C@H](CO)[C@@H](O)[C@H](O)[C@H]4O)C(C)(C)[C@@H]3CC[C@]12C [Rc, ginsenoside Rc] | – | – | – | – | – | – | – | – | – | effect on CYP enzyme activity [1]: do not affect
Cn1c(=O)c2c(ncn2C)n(C)c1=O [Caffeine, caffeine] | 1.165 (1.002–1.356) | 1.128 (0.997–1.277) | 1.002 (0.857–1.171) | 57500 | 49300 | 51300 | 45500 | 6.94 | 5.5 | fraction metabolized to paraxanthine by CYP1A2 [5]: over 95%; Tmax [4, 10]: 0.5 h
Cc1ncc2n1-c1ccc(Cl)cc1C(c1ccccc1F)=NC2 [Midazolam, midazolam] | 1.138 (1.007–1.285) | 1.157 (1.022–1.309) | 0.873 (0.732–1.041) | 126 | 110 | 119 | 103 | 2.96 | 3.3 | –
CC(C)=CCC[C@](C)(O[C@@H]1O[C@H](CO[C@@H]2O[C@H](CO)[C@@H](O)[C@H](O)[C@H]2O)[C@@H](O)[C@H](O)[C@H]1O)[C@H]1CC[C@]2(C)[C@@H]1[C@H](O)C[C@@H]1[C@@]3(C)CC[C@H](O[C@@H]4O[C@H](CO)[C@@H](O)[C@H](O)[C@H]4O[C@@H]4O[C@H](CO)[C@@H](O)[C@H](O)[C@H]4O)C(C)(C)[C@@H]3CC[C@]12C [ginsenoside Rb1] | – | – | – | – | – | – | – | – | – | effect on CYP enzyme activity [1]: do not affect
CC(C)=CCC[C@](C)(O)[C@H]1CC[C@]2(C)[C@@H]1[C@H](O)C[C@@H]1[C@@]3(C)CC[C@H](O)C(C)(C)[C@@H]3[C@@H](O)C[C@]12C [PPT, protopanaxatriol] | – | – | – | – | – | – | – | – | – | inhibition of CYP3A4 activity [2]: potent inhibition
OCc1ncc2n1-c1ccc(Cl)cc1C(c1ccccc1F)=NC2 [1‐hydroxymidazolam] | 0.924 (0.791–1.080) | 0.944 (0.805–1.107) | 0.750 (0.583–0.966) | – | – | – | – | – | – | AUCinf, geometric mean, After FRG [4, 6]: 74.221 ng·h/mL; AUClast, geometric mean, After FRG [4, 6]: 69.474 ng·h/mL; t 1/2, geometric mean, After FRG [4, 6]: 0.678 h; t max (median), After FRG [4, 6]: 0.517 h; AUCinf, geometric mean, Before FRG [4, 7]: 80.311 ng·h/mL; AUClast, geometric mean, Before FRG [4, 7]: 73.587 ng·h/mL; t 1/2, geometric mean, Before FRG [4, 7]: 0.728 h; t max (median), Before FRG [4, 7]: 0.500 h
COc1ccc2c(c1)[C@]13CCCC[C@@H]1[C@H](C2)N(C)CC3 [Dextromethorphan, dextromethorphan] | 0.869 (0.638–1.184) | 0.907 (0.681–1.209) | 0.849 (0.688–1.047) | 43.5 | 50.1 | 17.1 | 18.9 | – | – | t 1/2, geometric mean, After FRG [4, 6]: 7.006 h; t 1/2, geometric mean, Before FRG [4, 7]: 7.540 h; Tmax [4]: 2 h
Cn1c(=O)[nH]c2ncn(C)c2c1=O [Paraxanthine, paraxanthine] | 1.432 (1.125–1.823) | 1.017 (0.943–1.096) | 0.979 (0.906–1.057) | 53900 | 37600 | 24600 | 24200 | 20.7 | 11.8 | Tmax [4, 11]: 6 h
COc1ccc2[nH]c([S+]([O-])Cc3ncc(C)c(OC)c3C)nc2c1 (stereo not shown) [Omeprazole, omeprazole] | 0.936 (0.819–1.069) | 0.931 (0.812–1.067) | 0.892 (0.747–1.066) | 1280 | 1370 | 1260 | 1350 | 1.22 | 1.19 | t max (median), Before FRG [4, 7]: 2.000 h
CCCCc1nc(Cl)c(CO)n1Cc1ccc(-c2ccccc2-c2nn[nH]n2)cc1 [Losartan, losartan] | 1.047 (0.887–1.237) | 1.048 (0.887–1.239) | 0.974 (0.797–1.190) | 549 | 524 | 542 | 517 | 1.94 | 1.86 | Tmax [4, 11]: 1.5 h; Tmax [4, 10]: 1.5 h
CN1CC[C@@]23CCCC[C@@H]2[C@@H]1Cc1ccc(O)cc13 [Dextrorphan, dextrorphan] | 1.042 (0.932–1.164) | 1.044 (0.926–1.176) | 1.024 (0.876–1.198) | 66.1 | 63.5 | 60.3 | 57.7 | 3.43 | 3.92 | t max (median), Before FRG [4, 7]: 2.000 h
CC(C)=CCC[C@](C)(O)[C@H]1CC[C@]2(C)[C@@H]1[C@H](O)C[C@@H]1[C@@]3(C)CC[C@H](O[C@@H]4O[C@H](CO)[C@@H](O)[C@H](O)[C@H]4O)C(C)(C)[C@@H]3CC[C@]12C [ginsenoside Rh2] | – | – | – | – | – | – | – | – | – | inhibition of CYP3A4 activity [2]: moderate inhibition; inhibition of CYP2C9 activity [3]: moderate inhibition
CC(C)=CCCC(C)(O)[C@H]1CC[C@]2(C)[C@@H]1[C@H](O)C[C@@H]1[C@@]3(C)CC[C@H](O)C(C)(C)[C@@H]3CC[C@]12C (stereo in doubt) [PPD, protopanaxadiol] | – | – | – | – | – | – | – | – | – | inhibition of CYP3A4 activity [2]: potent inhibition
CCCCc1nc(Cl)c(C(=O)O)n1Cc1ccc(-c2ccccc2-c2nn[nH]n2)cc1 [EXP3174] | 0.813 (0.687–0.963) | 0.811 (0.684–0.963) | 0.832 (0.694–0.997) | 2610 | 3210 | 2500 | 3080 | – | – | Tmax [4, 11]: 4 h; Tmax [4, 10]: 3 h

Reference: publication PMC5099554 (British Journal of Clinical Pharmacology, 2016)
